Assay results published in US9102670B2, “Pyrido-, pyrazo- and pyrimido-pyrimidine derivatives as mTOR inhibitors” (KuDOS Pharmaceuticals Limited, priority 2006, dated 2015).

The compounds below were run on phosphorylation of Serine 473 in Akt (assay: In Vitro Phospho-Ser473 Akt Assay in MDA-MB-468 cells). Conditions: Homo sapiens, MDA-MB-468, read-out: IC50 values against mTOR, phospho-Ser473 Akt assay, MDA-MB-468 cells.
Format: cell-based

`C[C@H]1COCCN1c1nc(N2CCOC[C@@H]2C)c2ccc(-c3cccc(C(=O)NCCO)c3)nc2n1` [Example 8a] and `COc1ccc(-c2ccc3c(N4CCOC[C@@H]4C)nc(N4CCOC[C@@H]4C)nc3n2)cc1C(=O)NCCO` [Example 8b] cannot be ordered by IC50: less than 100 nM for the first, less than 100 nM for the second.

`COCc1cc(-c2ccc3c(N4CCOC[C@@H]4C)nc(N4CCOC[C@@H]4C)nc3n2)ccc1F` [Example 9a] and `COc1ccc(-c2ccc3c(N4CCOC[C@@H]4C)nc(N4CCOC[C@@H]4C)nc3n2)cc1C(N)=O` [Example 14b] cannot be ordered by IC50: less than 300 nM for the first, less than 100 nM for the second.

`C[C@@H]1CN(c2nc(N3CCOC[C@@H]3C)c3ncc(-c4ccccc4)nc3n2)C[C@H](C)O1` [Example 12a] and `C[C@H]1COCCN1c1nc(N2CCOC[C@@H]2C)c2ncc(-c3ccccc3)nc2n1` [Example 12d] cannot be ordered by IC50: less than 100 nM for the first, less than 300 nM for the second.

`Cc1ccc(-c2cnc3c(N4CCOC[C@@H]4C)nc(N4CCOC[C@@H]4C)nc3n2)cc1` [Example 12c] and `C[C@H]1COCCN1c1nc(N2CCOC[C@@H]2C)c2ccc(-c3ccc(OCCN(C)C)nc3)nc2n1` [Example 13b] cannot be ordered by IC50: less than 100 nM for the first, less than 300 nM for the second.

`COc1ccc(-c2ccc3c(N4CCOC[C@@H]4C)nc(N4CCCC[C@H]4C)nc3n2)cc1CO` [Example 18a] and `COc1ccc(-c2ccc3c(N4CCOC[C@@H]4C)nc(N4CCCC4C)nc3n2)cc1CO` (stereo partly shown) [Example 18ap] cannot be ordered by IC50: less than 100 nM for the first, less than 100 nM for the second.

`COc1ccc(-c2ccc3c(N4CCOC[C@@H]4C)nc(N4CC[C@H](O)C4)nc3n2)cc1CO` [Example 18ab] and `COc1ccc(-c2ccc3c(N4CCOC[C@@H]4C)nc(N4CC[C@@H](O)C4)nc3n2)cc1CO` [Example 18bn] cannot be ordered by IC50: less than 300 nM for the first, less than 100 nM for the second.

`COc1ccc(-c2ccc3c(N4CCOC[C@@H]4C)nc(N4CCC(N5CCOCC5)CC4)nc3n2)cc1CO` [Example 18ac] and `COc1ccc(-c2ccc3c(N4CCOC[C@@H]4C)nc(N4CCC(N)CC4)nc3n2)cc1CO` [Example 18ad] cannot be ordered by IC50: less than 100 nM for the first, less than 100 nM for the second.

`COc1ccc(-c2ccc3c(N4CCOC[C@@H]4C)nc(N4CC(C)CC(C)C4)nc3n2)cc1CO` (stereo partly shown) [Example 18ae] and `COc1ccc(-c2ccc3c(N4CCOC[C@@H]4C)nc(N4C(C)CCC4C)nc3n2)cc1CO` (stereo partly shown) [Example 18bg] cannot be ordered by IC50: less than 100 nM for the first, less than 100 nM for the second.

`COc1ccc(-c2ccc3c(N4CCOC[C@@H]4C)nc(N4CCC(C(F)(F)F)CC4)nc3n2)cc1CO` [Example 18af] and `COc1ccc(-c2ccc3c(N4CCOC[C@@H]4C)nc(N4CCCCC4)nc3n2)cc1CO` [Example 18c] cannot be ordered by IC50: less than 300 nM for the first, less than 100 nM for the second.

`COC(=O)[C@@H]1CCCN1c1nc(N2CCOC[C@@H]2C)c2ccc(-c3ccc(OC)c(CO)c3)nc2n1` [Example 18ah] and `COc1ccc(-c2ccc3c(N4CCOC[C@@H]4C)nc(N4CCC[C@@H]4CO)nc3n2)cc1CO` [Example 18cm] cannot be ordered by IC50: less than 100 nM for the first, less than 100 nM for the second.

`COc1ccc(-c2ccc3c(N4CCOC[C@@H]4C)nc(N4CCCC(OC)C4)nc3n2)cc1CO` (stereo partly shown) [Example 18aj] and `COc1ccc(-c2ccc3c(N4CCOC[C@@H]4C)nc(N4CCCC(N)C4)nc3n2)cc1CO` (stereo partly shown) [Example 18au] cannot be ordered by IC50: less than 300 nM for the first, less than 100 nM for the second.

`COc1ccc(-c2ccc3c(N4CCOC[C@@H]4C)nc(N4CCC(C(=O)c5ccc(Cl)cc5)CC4)nc3n2)cc1CO` [Example 18ak] and `COc1ccc(-c2ccc3c(N4CCOC[C@@H]4C)nc(N4CCC(c5ccc(Cl)cc5)CC4)nc3n2)cc1CO` [Example 18aq] cannot be ordered by IC50: less than 100 nM for the first, less than 300 nM for the second.

`COc1ccc(-c2ccc3c(N4CCOC[C@@H]4C)nc(N4CCC(O)(c5ccccc5)CC4)nc3n2)cc1CO` [Example 18am] and `COc1ccc(-c2ccc3c(N4CCOC[C@@H]4C)nc(N4CCC(C#N)(c5ccccc5)CC4)nc3n2)cc1CO` [Example 18an] cannot be ordered by IC50: less than 100 nM for the first, less than 100 nM for the second.

`COc1ccc(-c2ccc3c(N4CCOC[C@@H]4C)nc(N4CCCC(c5nc(C)no5)C4)nc3n2)cc1CO` (stereo partly shown) [Example 18ar] and `COc1ccc(-c2ccc3c(N4CCOC[C@@H]4C)nc(N4CCC[C@H](O)C4)nc3n2)cc1CO` [Example 18bj] cannot be ordered by IC50: less than 100 nM for the first, less than 100 nM for the second.

`COc1ccc(-c2ccc3c(N4CCOC[C@@H]4C)nc(N4CCCC(CN(C)C)C4)nc3n2)cc1CO` (stereo partly shown) [Example 18as] and `COc1ccc(-c2ccc3c(N4CCOC[C@@H]4C)nc(N4CCC[C@@H](O)C4)nc3n2)cc1CO` [Example 18bk] cannot be ordered by IC50: less than 300 nM for the first, less than 100 nM for the second.

`COc1ccc(-c2ccc3c(N4CCOC[C@@H]4C)nc(NC(C)CC(C)C)nc3n2)cc1CO` (stereo partly shown) [Example 18av] and `COc1ccc(-c2ccc3c(N4CCOC[C@@H]4C)nc(NC(C)C)nc3n2)cc1CO` [Example 18br] cannot be ordered by IC50: less than 300 nM for the first, less than 100 nM for the second.

`COc1ccc(-c2ccc3c(N4CCOC[C@@H]4C)nc(NC4CCCC4)nc3n2)cc1CO` [Example 18aw] and `CCNc1nc(N2CCOC[C@@H]2C)c2ccc(-c3ccc(OC)c(CO)c3)nc2n1` [Example 18bq] cannot be ordered by IC50: less than 100 nM for the first, less than 300 nM for the second.

`COCC(C)Nc1nc(N2CCOC[C@@H]2C)c2ccc(-c3ccc(OC)c(CO)c3)nc2n1` (stereo partly shown) [Example 18ax] and `COC[C@@H](C)Nc1nc(N2CCOC[C@@H]2C)c2ccc(-c3ccc(OC)c(CO)c3)nc2n1` [Example 18bo] cannot be ordered by IC50: less than 100 nM for the first, less than 100 nM for the second.

`COc1ccc(-c2ccc3c(N4CCOC[C@@H]4C)nc(-n4ccnc4)nc3n2)cc1CO` [Example 18ay] and `COc1ccc(-c2ccc3c(N4CCOC[C@@H]4C)nc(-n4cnc(Br)c4)nc3n2)cc1CO` [Example 18bb] cannot be ordered by IC50: less than 300 nM for the first, less than 300 nM for the second.

`COc1ccc(-c2ccc3c(N4CCOC[C@@H]4C)nc(-n4cnc(C)c4C=O)nc3n2)cc1CO` [Example 18ba] and `COc1ccc(-c2ccc3c(N4CCOC[C@@H]4C)nc(-n4ccnc4C)nc3n2)cc1CO` [Example 18cn] cannot be ordered by IC50: less than 100 nM for the first, less than 300 nM for the second.

`COc1ccc(-c2ccc3c(N4CCOC[C@@H]4C)nc(-n4cc(Br)nc4C)nc3n2)cc1CO` [Example 18bc] and `COc1ccc(-c2ccc3c(N4CCOC[C@@H]4C)nc(N4CCNC(=O)C4C)nc3n2)cc1CO` (stereo partly shown) [Example 18co] cannot be ordered by IC50: less than 300 nM for the first, less than 100 nM for the second.

`CCC1CCC(C)N(c2nc(N3CCOC[C@@H]3C)c3ccc(-c4ccc(OC)c(CO)c4)nc3n2)C1` (stereo partly shown) [Example 18bd] and `COc1ccc(-c2ccc3c(N4CCOC[C@@H]4C)nc(N4CCCCC4CO)nc3n2)cc1CO` (stereo partly shown) [Example 18bm] cannot be ordered by IC50: less than 100 nM for the first, less than 100 nM for the second.

`COc1ccc(-c2ccc3c(N4CCOC[C@@H]4C)nc(N4CCC(c5ccccc5)CC4)nc3n2)cc1CO` [Example 18be] and `COc1ccc(-c2ccc3c(N4CCOC[C@@H]4C)nc(N4CCC(c5ccncc5)CC4)nc3n2)cc1CO` [Example 18bi] cannot be ordered by IC50: less than 100 nM for the first, less than 100 nM for the second.

`COc1ccc(-c2ccc3c(N4CCOC[C@@H]4C)nc(N4CCOC(c5ccccc5)C4)nc3n2)cc1CO` (stereo partly shown) [Example 18bf] and `COc1ccc(-c2ccc3c(N4CCOC[C@@H]4C)nc(N4CCOc5ccccc54)nc3n2)cc1CO` [Example 18bl] cannot be ordered by IC50: less than 300 nM for the first, less than 300 nM for the second.

`COc1ccc(-c2ccc3c(N4CCOC[C@@H]4C)nc(NCCF)nc3n2)cc1CO` [Example 18bt] and `COc1ccc(-c2ccc3c(N4CCOC[C@@H]4C)nc(NCC(F)F)nc3n2)cc1CO` [Example 18bz] cannot be ordered by IC50: less than 300 nM for the first, less than 300 nM for the second.

`COc1ccc(-c2ccc3c(N4CCOC[C@@H]4C)nc(N[C@H](C)CO)nc3n2)cc1CO` [Example 18bw] and `COc1ccc(-c2ccc3c(N4CCOC[C@@H]4C)nc(N[C@@H](C)CO)nc3n2)cc1CO` [Example 18bx] cannot be ordered by IC50: less than 100 nM for the first, less than 300 nM for the second.

`COc1ccc(-c2ccc3c(N4CCOC[C@@H]4C)nc(N4CCNCC4)nc3n2)cc1CO` [Example 18ca] and `COc1ccc(-c2ccc3c(N4CCOC[C@@H]4C)nc(N4CCSCC4)nc3n2)cc1CO` [Example 18ch] cannot be ordered by IC50: less than 300 nM for the first, less than 100 nM for the second.

`COc1ccc(-c2ccc3c(N4CCOC[C@@H]4C)nc(NC(C)(C)CO)nc3n2)cc1CO` [Example 18cc] and `COc1ccc(-c2ccc3c(N4CCOC[C@@H]4C)nc(NC(CO)CO)nc3n2)cc1CO` [Example 18cd] cannot be ordered by IC50: less than 100 nM for the first, less than 300 nM for the second.

`COc1ccc(-c2ccc3c(N4CCOC[C@@H]4C)nc(N4CCNC(=O)C4)nc3n2)cc1CO` [Example 18cf] and `COc1ccc(-c2ccc3c(N4CCOC[C@@H]4C)nc(N4CCN(C)CC4)nc3n2)cc1CO` [Example 18cg] cannot be ordered by IC50: less than 100 nM for the first, less than 300 nM for the second.

`COCCN(CCOC)c1nc(N2CCOC[C@@H]2C)c2ccc(-c3ccc(OC)c(CO)c3)nc2n1` [Example 18cj] and `COc1ccc(-c2ccc3c(N4CCOC[C@@H]4C)nc(N(CCO)CCO)nc3n2)cc1CO` [Example 18ck] cannot be ordered by IC50: less than 100 nM for the first, less than 100 nM for the second.

`COc1ccc(-c2ccc3c(N4CCOC[C@@H]4C)nc(N(C)CCO)nc3n2)cc1CO` [Example 18cr] and `COc1ccc(-c2ccc3c(N4CCOC[C@@H]4C)nc(N(CCO)C(C)C)nc3n2)cc1CO` [Example 18cs] cannot be ordered by IC50: less than 100 nM for the first, less than 100 nM for the second.

Same assay, conditions: Homo sapiens, MDA-MB-468, read-out: IC50 values against mTOR, phospho-Ser473 Akt assay, MDA-MB-468 cells, upper bound

`Cc1ccc(-c2cnc3c(N4CCOC[C@@H]4C)nc(N4C[C@@H](C)O[C@@H](C)C4)nc3n2)cc1` [Example 12b] and `COc1ccc(-c2ccc3c(N4CCOC[C@@H]4C)nc(N4CCC5CCCCC5C4)nc3n2)cc1CO` (stereo partly shown) [Example 18ag] cannot be ordered by IC50: less than 1000 nM for the first, less than 1000 nM for the second.

`COC(=O)[C@@H]1C[C@@H](O)CN1c1nc(N2CCOC[C@@H]2C)c2ccc(-c3ccc(OC)c(CO)c3)nc2n1` [Example 18aa] and `COC(=O)c1cncn1-c1nc(N2CCOC[C@@H]2C)c2ccc(-c3ccc(OC)c(CO)c3)nc2n1` [Example 18az] cannot be ordered by IC50: less than 1000 nM for the first, less than 1000 nM for the second.

`COc1ccc(-c2ccc3c(N4CCOC[C@@H]4C)nc(N4CCC(N5CCCC5)CC4)nc3n2)cc1CO` [Example 18ai] and `COc1ccc(-c2ccc3c(N4CCOC[C@@H]4C)nc(N4CCC(Cc5ccccc5)CC4)nc3n2)cc1CO` [Example 18al] cannot be ordered by IC50: less than 1000 nM for the first, less than 1000 nM for the second.

`CNc1nc(N2CCOC[C@@H]2C)c2ccc(-c3ccc(OC)c(CO)c3)nc2n1` [Example 18bp] and `CNCCNc1nc(N2CCOC[C@@H]2C)c2ccc(-c3ccc(OC)c(CO)c3)nc2n1` [Example 18bv] cannot be ordered by IC50: less than 1000 nM for the first, less than 1000 nM for the second.

`COc1ccc(-c2ccc3c(N4CCOC[C@@H]4C)nc(NCCO)nc3n2)cc1CO` [Example 18bs] and `COCCNc1nc(N2CCOC[C@@H]2C)c2ccc(-c3ccc(OC)c(CO)c3)nc2n1` [Example 18by] cannot be ordered by IC50: less than 1000 nM for the first, less than 1000 nM for the second.

Compound `COc1ccc(-c2ccc3c(N4CCOC[C@@H]4C)nc(NCCN(C)C)nc3n2)cc1CO` [Example 18cb] has an IC50 of less than 1000 nM.
